Data on two compounds can be found in BindingDB's records for doi:10.1021/np049624z (Harvard Medical School, 2005).

For this test, the target named is Forkhead box protein O1 (Homo sapiens, UniProt Q12778). Put plainly: Inhibition of FOXO1a nuclear export in PTEN-deficient cells.

As a reminder, the IC50 is the point on the concentration scale where inhibition reaches its midpoint. A high value points to weaker potency.

Chain of Forkhead box protein O1 (Q12778 whole entry): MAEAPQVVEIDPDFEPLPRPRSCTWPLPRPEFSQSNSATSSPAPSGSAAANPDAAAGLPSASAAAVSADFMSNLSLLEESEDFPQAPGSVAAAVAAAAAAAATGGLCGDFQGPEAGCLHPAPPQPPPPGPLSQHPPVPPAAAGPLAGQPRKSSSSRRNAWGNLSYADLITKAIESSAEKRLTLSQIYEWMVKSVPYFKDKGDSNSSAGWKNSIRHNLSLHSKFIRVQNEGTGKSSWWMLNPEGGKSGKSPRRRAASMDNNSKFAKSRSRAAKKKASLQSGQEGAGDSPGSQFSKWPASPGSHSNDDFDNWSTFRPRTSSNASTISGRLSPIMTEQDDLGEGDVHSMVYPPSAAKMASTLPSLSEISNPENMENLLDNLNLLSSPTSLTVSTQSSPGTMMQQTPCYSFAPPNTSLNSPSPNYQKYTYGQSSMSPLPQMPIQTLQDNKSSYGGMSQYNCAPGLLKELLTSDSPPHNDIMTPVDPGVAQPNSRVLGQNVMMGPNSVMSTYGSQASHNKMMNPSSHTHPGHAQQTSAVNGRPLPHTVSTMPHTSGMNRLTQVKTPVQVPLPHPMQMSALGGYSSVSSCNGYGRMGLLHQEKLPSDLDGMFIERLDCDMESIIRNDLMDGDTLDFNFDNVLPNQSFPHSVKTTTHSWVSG

Turning to `CN(C)CCCOc1c(Br)cc(/C=C/C(=O)NCCCOc2c(Br)cc(CCN(C)C)cc2Br)cc1Br` [psammaplysene A], the IC50 stood at 5 µM.

As to `CNCCCOc1c(Br)cc(/C=C/C(=O)NCCCOc2c(Br)cc(CCN(C)C)cc2Br)cc1Br` [psammaplysene B], 20 µM corresponded to half-maximal inhibition (IC50).
